In patent publication US4136192A, “4-Hydroxy-3-nitro (cyano) coumarins” (Beecham Group Limited, priority 1975, dated 1979) one finds ED50 and IC50 data, which are given here for 19 molecules.

The structures appear in SMILES notation. Where two headings read alike, the source gives them in different places.

One test relates to PCA response. Description: Passive Cutaneous Anaphylaxis (rat PCA). As to conditions: iv, i.v. just before ovalbumin challenge, male Wistar rats. In kind it is in vivo. On the procedure: Serum containing heat labile homocytotropic antibody was raised in rats to crystallized ovalbumin XOA by the method of Mota (I. Mota, Immunology, 7, 681 (1964)) using Bordettela pertussis vaccine as adjuvant.
Passive cutaneous anaphylaxis (PCA) was carried out by a method based on that of Ovary and Bier (A. Ovary and O. G. Bier, Proc. Soc. Exp. Biol. Med 81, 584, (1952)) as modified by Goose and Blair.
Male Wistar rats of 250-300 g were given 0.1 ml of each of six twofold serial dilutions of pooled antiserum in 0.9% saline injected intradermally into separate sites on their shaved backs. Later (72 hr) the animals were challenged by intravenous injection of 0.3 ml of a 1% solution of ovalbumin in an isotonic solution of saline buffered with 0.5M, pH 7.2, Sorenson Buffer (PBS), mixed with 0.2 ml of a 5% solution of Pontamine Sky Blue (6BX C.I. 24410, Raymond A. Lamb, London) in isotonic saline. The rats were killed after 20 min and the diameter of the blue wheals at the antibody injection sites was measured on the outer surface of the skin. The starting dilution of the serum was adjusted so that there was no response, after challenge, at the injection site of the highest dilution and a maximum response at the lowest dilutions. Typically six twofold serial dilutions of the serum from 1/4 to 1/128 were used.
Compounds were tested for their ability to reduce the diameter of the wheels at those intradermal sites which in control animals gave less than maximum response. Each dose of the compound was administered intravenously to six rats in isotonic saline, adjusted to pH7 with sodium bicarbonate if necessary (2ml/kg body weight) just before intravenous challenge with ovalbumin. Control groups of six animals were given the same volume of carrier fluid at the same time.
The results were calculated as follows. % inhibition of PCA=100 (1 - a/b) where a=the sum of the diameters of the wheals produced in the test animal at the sites of antibody dilutions as used in control groups and b=the mean sum of the diameters of the wheals produced in the control group of animals at those antibody sites where at least five out of six of the animals gave less than maximum response. A typical variation in the control group of animals was SEN±6%.
The dose of the compound required to inhibit the PCA response by 50% was obtained from the log dose-response curve.

Test [1] relates to slow reacting substance of anaphylaxis (SRS-A). Description: SRS-A antagonism on isolated guinea pig ileum. More on the design: species or system guinea pig ileum (SRS-A from rat). As to conditions: rat SRS-A. An excerpt: The compounds have been evaluated as direct antagonists of slow reacting substance of anaphylaxis (SRS-A) by assay using the isolated guinea pig ileum.
SRS-A rat was obtained from the peritoneal cavity of the rat after passive peritoneal anaphylaxis by a method based on that of R. P. Orange, D. J. Stechschulte and K. F. Austen, J. Immunology, 105 1087 (1970) as described by B. A. Spicer, J. W. Ross and H. Smith, Clin. exp. Immunol. 1975, 21, 419. The sensitizing serum containing reaginic antibody was produced in rats as described by B. A. Spicer, et. al. ibid.
2 ml of a 1 in 5 dilution of the sensitizing serum was injected by the peritoneal route into recipient rats and after 2 hours, 5 ml of tyrode solution containing 0.4 mg/ml ovalbumin (Sigma Grade III) and 50 μg/ml heparin was injected by the same route. Five minutes after challenge the rats were stunned and bled and the peritoneal fluids collected into polycarbonate tubes in ice. After centrifugation at 150 g for 5 minutes the supernatants were combined, heated in a boiling water bath for 5 minutes, cooled and stored at -20° C. The combined peritioneal fluids contained SRS-A and were used in the antagonism studies.
The SRS-A assays were carried out on isolated strips of guinea pig ileum in tyrode solution containing atropine 5 × 10^-7 M and mepyramine 10^-6 M as described by W. E. Brocklehurst, J. Physiology, 151, 416 (1960).
The activity of the antagonists was determined by their ability to reduce submaximal responses induced by SRS-A. The antagonists were added to a 4 ml bath in 0.1 ml volumes in aqueous solution half a minute before the addition of SRS-A and were present during induced contraction. Two or three concentrations of antagonists were used and the percentage inhibition of the SRS-A response plotted against the bath concentration of antagonist. The line of best fit was drawn and the concentration to cause 50% inhibition IC50 read graphically.

Where [2] appears, read: read-out: Rat PCA: Dose given i.v. to effect a 50% inhibition of the PCA response.
Where [3] appears, read: as first table, unit inferred, isolated guinea pig ileum, read-out: SRS-A antagonism on Guinea Pig Ileum: Approximate concentration to give inhibition of a than maximal response to SRS-A.
[4] abbreviates: isolated guinea pig ileum strips, tyrode with atropine and mepyramine, 50% inhibition per method, read-out: SRS-A antagonism on Guinea Pig Ileum: Approximate concentration to give inhibition of a than maximal response to SRS-A.
Setting [5] is: second results table, unit inferred, isolated guinea pig ileum, read-out: SRS-A antagonism on Guinea Pig ileum: Approximate concentration to give 50% inhibition of a less than maximal response to SRS-A.
[6] abbreviates: second results table, read-out: Rat PCA: Dose given i.v. to effect a 50% inhibition of PCA response.

Consider `O=c1oc2cc(OCCc3ccc(F)cc3)ccc2c(O)c1[N+](=O)[O-]` [Example 117], for which, in the test with PCA response (setting [2]), the ED50 was determined as 1 mg/kg.

Regarding `CCCc1c(OCCOc2ccc3c(O)c([N+](=O)[O-])c(=O)oc3c2)ccc(C(C)=O)c1O` [Example 127, 7-(2-[4-Acetyl-3-hydroxy-2-n-propylphenoxy]ethoxy)-4-hydroxy-3-nitrocoumarin], the ED50 in the test on PCA response (setting [2]) was ~2 mg/kg.

Turning to `CCCc1cc(C(C)=O)ccc1OCC(O)COc1ccc2c(O)c([N+](=O)[O-])c(=O)oc2c1` (centres unmarked) [Example 142, 7-(3-[4-Acetyl-2-n-propylphenoxy]-2-hydroxypropoxy)-4-hydroxy-3-nitrocoumarin], the ED50 in the test with PCA response (setting [2]) was < 1 mg/kg.

Consider `CCc1cc(C(C)=O)c(O)cc1OCC(O)COc1ccc2c(O)c([N+](=O)[O-])c(=O)oc2c1` (centres unmarked) [Example 145, 7-(3-[4-Acetyl-2-ethyl-5-hydroxy-phenoxy]-2-hydroxy-propoxy)-4-hydroxy-3-nitrocoumarin], for which the ED50 with PCA response (setting [2]) worked out at 2 mg/kg.

As to `CCCc1c(OCC(O)COc2ccc3c(O)c([N+](=O)[O-])c(=O)oc3c2C)ccc(C(C)=O)c1O` (centres unmarked) [Example 147, 7-(3-[4-Acetyl-3-hydroxy-2-n-propyl-phenoxy]-2-hydroxy-propoxy)-4-hydroxy-8-methyl-3-nitro-coumarin], in test [1] (setting [3]), the IC50 is 0.01 µM. Further, the ED50 in the test on PCA response (setting [2]) is < 2 mg/kg.

Take `CCCc1c(OCC(O)COc2ccc3c(O)c([N+](=O)[O-])c(=O)oc3c2CCC)ccc(C(C)=O)c1O` (centres unmarked) [Example 148, 7-(3-[4-Acetyl-3-hydroxy-2-n-propyl-phenoxy]-2-hydroxy-propoxy)-4-hydroxy-3-nitro-8-n-propyl-coumarin]: the IC50 in test [1] (setting [4]) was 0.1 µM. The ED50 in the test on PCA response (setting [2]) was < 1 mg/kg.

Consider `CCCc1c(OCC(O)COc2ccc3c(O)c([N+](=O)[O-])c(=O)oc3c2)ccc(C(=O)CC)c1O` (centres unmarked) [Example 149], for which the ED50 with PCA response (setting [2]) came out at 2 mg/kg.

In the case of `O=c1oc2cc(OCCCCCCOc3ccccc3)ccc2c(O)c1[N+](=O)[O-]` [Example 154, 4-Hydroxy-3-nitro-7-(6-phenoxyhexoxy) coumarin], in test [1] (setting [4]), the IC50 turned out to be 10 µM. Moreover, in the test on PCA response (setting [2]), the ED50 was 1 to 2 mg/kg.

In the case of `Cc1ccccc1OCCCOc1ccc2c(O)c([N+](=O)[O-])c(=O)oc2c1` [Example 155, 4-Hydroxy-7-(3-[2-methylphenoxy]propoxy)-3-nitrocoumarin], the IC50 in test [1] (setting [4]) came out at 0.1 µM. Also, in the test with PCA response (setting [2]), the ED50 lay within 1 to 2 mg/kg.

Turning to `CCCc1cc(F)ccc1OCC(O)COc1ccc2c(O)c([N+](=O)[O-])c(=O)oc2c1` (centres unmarked) [Example 164, 7-(3-[4-Fluoro-2-hydroxypropoxy)-4-hydroxy-3-nitro-coumarin], the IC50 in test [1] (setting [3]) stood at 0.1 µM. Further, the ED50 in the test on PCA response (setting [2]) came out at 1 mg/kg.

As to `CCCc1c(O)c(C(C)=O)cc([N+](=O)[O-])c1OCCOc1ccc2c(O)c([N+](=O)[O-])c(=O)oc2c1` [Example 165, 7-[2-(4-Acetyl-3-hydroxy-6-nitro-2-n-propylphenoxy)ethoxy]-4-hydroxy-3-nitrocoumarin], in the test with PCA response (setting [2]), the ED50 was determined as 1 mg/kg.

Regarding `CCCc1c(O)c(C(C)=O)cc([N+](=O)[O-])c1OCC(O)COc1ccc2c(O)c([N+](=O)[O-])c(=O)oc2c1C` (centres unmarked) [Example 166, 7-[3-(4-Acetyl-3-hydroxy-6-nitro-2-n-propylphenoxy)-2-hydroxypropoxy]-4-hydroxy-8-methyl-3-nitrocoumarin], the IC50 in test [1] (setting [3]) is 0.1 µM. Also, the ED50 in the test on PCA response (setting [2]) was < 1 mg/kg.

With `O=C1c2ccc(OCCCOc3ccccc3)cc2C(=O)C1[N+](=O)[O-]` (centres unmarked) [Example 182, 2-Nitro-5-(3-phenoxypropoxy)indan-1,3-dione], the IC50 in test [1] (setting [5]) stood at 0.1 µM. In the test with PCA response (setting [6]), the ED50 is < 1 mg/kg.

`O=C1c2ccc(OCCCc3ccccc3)cc2C(=O)C1[N+](=O)[O-]` (centres unmarked) [Example 183, 2-Nitro-5-(3-phenylpropoxy)indan-1,3-dione]: the ED50 in the test with PCA response (setting [6]) was < 1 mg/kg.

For the molecule `Cc1cc(C)c(C)c(OCCCOc2ccc3c(c2)C(=O)C([N+](=O)[O-])C3=O)c1` (centres unmarked) [Example 184, 2-Nitro-5-[3-(2,3,5-trimethylphenoxy)propoxy]indan-1,3-dione], the IC50 in test [1] (setting [5]) was found to be 1 µM. The ED50 in the test with PCA response (setting [6]) was found to be 1 mg/kg.

Turning to `Cc1cc2c(cc1OCCCOc1ccccc1)C(=O)C([N+](=O)[O-])C2=O` (centres unmarked) [Example 185, 5-Methyl-2-nitro-6-(3-phenoxypropoxy)indan-1,3-dione], in test [1] (setting [5]), the IC50 is 1 µM.

Regarding `N#CC1C(=O)c2ccc(OCCCOc3ccccc3)cc2C1=O` (centres unmarked) [Example 188, 2-Cyano-5-(3-phenoxypropoxy)indan-1,3-dione], the IC50 in test [1] (setting [5]) came to 1 µM. Also, the ED50 in the test with PCA response (setting [6]) is > 2 mg/kg.

On to `N#CC1C(=O)c2ccc(OCCc3ccccc3)cc2C1=O` (centres unmarked) [Example 189, 2-Cyano-5-(2-phenylethoxy)indan-1,3-dione], for which the IC50 in test [1] (setting [5]) worked out at 1 µM.

As to `N#Cc1c(O)c2ccc(OCCCOc3ccccc3)cc2oc1=O` [Example 204, 3-Cyano-4-hydroxy-7-(3-phenoxypropoxy) coumarin], in test [1] (setting [5]), the IC50 worked out at 1 µM. Moreover, the ED50 with PCA response (setting [6]) came to 2 mg/kg.
